pIC50: −log10 of the molar value.
Molecular target: Cytochrome P450 3A4 (Homo sapiens, UniProt P08684)
Sequence (P08684 whole entry): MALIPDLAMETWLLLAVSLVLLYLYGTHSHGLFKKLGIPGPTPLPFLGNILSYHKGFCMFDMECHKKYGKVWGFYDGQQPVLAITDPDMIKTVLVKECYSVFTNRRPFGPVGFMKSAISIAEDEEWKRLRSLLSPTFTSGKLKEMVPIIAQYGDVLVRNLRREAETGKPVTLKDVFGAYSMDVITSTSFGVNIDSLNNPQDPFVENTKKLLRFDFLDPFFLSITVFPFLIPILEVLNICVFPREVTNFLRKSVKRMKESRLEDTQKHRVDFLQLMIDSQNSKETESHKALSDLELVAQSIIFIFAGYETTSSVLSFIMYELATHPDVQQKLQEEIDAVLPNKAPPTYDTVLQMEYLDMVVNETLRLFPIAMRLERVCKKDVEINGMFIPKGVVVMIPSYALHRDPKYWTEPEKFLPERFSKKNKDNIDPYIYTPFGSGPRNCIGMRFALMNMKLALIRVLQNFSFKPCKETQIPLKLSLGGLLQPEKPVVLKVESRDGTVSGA

Compound | pIC50
OC1N=C(c2ccccc2F)c2cc(Cl)ccc2-n2cncc21 (configuration not stated) | 5.00
OCc1ncc2n1-c1ccc(Cl)cc1C(c1ccccc1F)=NC2 [ALPHA-HYDROXY-MIDAZOLAM] | 5.00
